US12509482B2, “3′-ketoglycoside compound for the slow release of a volatile alcohol” (GLYCOSCIENCE, S.L., priority 2020, dated 2025)
Counter-ions that a name gives are not always drawn.

Columns and labels:
Type in all cases: physicochemical
[1] = Example 13: release of 4-nitrophenol from substrate A (4-nitrophenyl-O-β-D-3′-ketoglucopyranoside) vs substrate B (4-nitrophenyl-O-β-D-glucopyranoside), 0.1 M deuterated phosphate buffer or water, 10% D6-DMSO, room temperature; details: for 4-nitrophenol release (in words): varying solution pH, room temperature, 0.5 mL of aqueous solution; for composition by 1H-NMR (aromatic signals): approximately 26 h
Protocol: In this example, 4-nitrophenyl-O-β-D-3′-ketoglucopyranoside and 4-nitrophenyl-O-beta-D-glucopyranoside were used as model compounds to determine the rate of release of an aromatic alcohol (4-nitrophenol) under different conditions.
Rate of release of 4-nitrophenol from (2R,3R,5S,6S)-3,5-dihydroxy-2-(hydroxymethyl)-6-(4-nitrophenoxy)tetrahydro-4H-pyran-4-one (4-nitrophenyl-O-β-D-3′-ketoglucopyranoside) was determined in comparison to (2R,3S,4S,5R,6S)-2-(hydroxymethyl)-6-(4-nitrophenoxy)tetrahydro-2H-pyran-3,4,5-triol (para-nitrophenyl-O-β-D-glucopyranoside) in 0.1 M deuterated phosphate buffer solutions of differing pH containing 10% D6-DMSO or in water containing 10% D6-DMSO at room temperature.
1 M Stock solutions of sodium dihydrogen phosphate and disodium hydrogen phosphate were prepared in deuterated water (D2O). Stock solutions of 25 mg of 4-nitrophenyl-O-β-D-3′-ketoglucopyranoside (substrate A), 25 mg of 4-nitrophenyl-O-β-D-glucopyranoside (substrate B) in 0.5 mL of D6-DMSO were each prepared and a stock solution of 11 mg of 4-nitrophenol in the same volume of D6-DMSO for visual comparison.
Solutions of pH 4.5, 5.8, 7.4 and 9.5 were prepared by dilution of the appropriate individual or mixture of stock phosphate salt solutions to 0.1 M using a calibrated pH meter.
To ten parallel reaction vials was added 0.05 mL of one of the glycoside substrate stock solutions in D6-DMSO, 0.5 mL of the appropriate deuterated buffer solution or 0.5 mL of water were indicated in Table I below. The reaction vials were allowed to stand at room temperature and the colour of the solutions recorded by visual observation relative to the colour of authentic 4-nitrophenol solutions diluted in the same way, as shown in Table I:
After approximately 26 h, reactions 2 to 5 were all analysed by ^1H-NM R using 128 scans on a 400 MHz instrument.

[2] = Example 30: competitive release of alcohol from substrate stock solutions A-D (methyl-O-α-D-3′-ketoglucopyranoside, methyl-O-α-D-glucopyranoside, phenyl-O-β-D-3′-ketoglucopyranoside, phenyl-O-β-D-glucopyranoside, each with 4-nitrophenyl-O-β-D-glucopyranoside), 0.1 M phosphate buffer, 37° C., presence and absence of fresh skin wash; details: for alcohol release (in words): 37° C.
Text: In this example, phenyl-O-β-D-3′-ketoglucopyranoside, methyl-O-α-D-3′-ketoglucopyranoside, phenyl-O-β-D-glucopyranoside, methyl-O-α-D-glucopyranoside and 4-nitrophenyl-O-β-D-glucopyranoside were used as model compounds to determine the rate of release of their respective alcohol rests under different conditions.
The competitive rate of release of methanol or phenol and 4-nitrophenol from a 1:1 stoichiometric mixture of (2R,5S,6S)-3,5-dihydroxy-2-(hydroxymethyl)-6-phenoxytetrahydro-4H-pyran-4-one (phenyl-O-β-D-3′-ketoglucopyranoside) or (2R,3R,5S,6S)-3,5-dihydroxy-2-(hydroxymethyl)-6-methoxytetrahydro-4H-pyran-4-one (methyl-O-α-D-3′ketoglucopyranoside) and their respective 0-glucopyranosides against (2R,3S,4S,5R,6S)-2-(hydroxymethyl)-6-(4-nitrophenoxy)tetrahydro-2H-pyran-3,4,5-triol (4-nitrophenyl-O-β-D-glucopyranoside) in 0.1 M deuterated phosphate buffer solutions at pH 5.7 and 7.0 containing 10% D6-DMSO at room temperature in the presence and absence of fresh skin washing solution was determined.
1 M Stock solutions of sodium dihydrogen phosphate and disodium hydrogen phosphate were prepared in deuterated water (D2O).
4-Nitrophenyl-O-β-D-glucopyranoside (50 mg) was dissolved in D6-DMSO (1 mL) and 0.2 mL of the resultant solution added to each of 10 mg of methyl-O-α-D-3′-ketoglucopyranoside, methyl-O-α-D-glucopyranoside, phenyl-O-β-D-3′-ketoglucopyranoside and phenyl-O-β-D-glucopyranoside to give substrate stock solutions A, B, C and D respectively.
In a typical experiment, a stock solution of fresh skin wash suspension was prepared by swabbing a 25 cm^2 area of cheek skin of a human volunteer by robustly rubbing the area with a cotton wool gauze (5×5 cm^2) soaked in D2O (12.5 mL) for 1 minute and then resuspending the gauze in the D2O solution, rapidly shaking and removing the gauze after squeezing out as much liquid as possible with a spatula.
1 M Stock solutions of phosphate buffer, pH 5.7 and 7.0 were prepared by appropriately mixing 1 M stock phosphate salts solutions to the correct pH as determined using a calibrated pH meter.
Half of each buffer stock solution was diluted ten times with D2O and the other with the above skin washing stock solution to give a 0.1 M phosphate buffer in D2O with a final pH of 5.7, 0.1 M phosphate buffer in D2O with a final pH of 7.0, a 0.1 M phosphate buffer in skin wash solution with a final pH of 5.7 and a 0.1 M phosphate buffer in skin wash solution with a final pH of 7.0.
To sixteen parallel reaction vials, was added 0.45 mL of low or high pH 0.1M phosphate buffer in D2O or 0.45 mL of low or high pH 0.1M phosphate buffer in skin wash solution followed by 0.05 mL of one of the glycoside substrate solutions in D6-DMSO and the mixtures incubated by shaking at 37° C. After times indicated in the table below, the mixtures where analysed by ^1H-NMR with 128 scans using a 400 MHz instrument and the colour observed visually, with the results shown in Table XVII: […]

[3] = Example 22: competitive release of para-nitrophenol from an approximately equimolar solution of 4-nitrophenyl-O-β-D- and -O-α-D-3′-ketoglucopyranoside, 32° C., 1H NMR integrals
Text: In this example the competitive rate of release of para-nitrophenol from an approximately equimolar solution of (2R,5S,6S)-3,5-dihydroxy-2-(hydroxymethyl)-6-(4-nitrophenoxy)tetrahydro-4H-pyran-4-one (4-nitrophenyl-O-β-D-3′-ketoglucopyranoside) and (2R,5S,6S)-3,5-dihydroxy-2-(hydroxymethyl)-6-(4-nitrophenoxy)tetrahydro-4H-pyran-4-one (4-nitrophenyl-O-α-D-3′-ketoglucopyranoside) in D2O containing 1.5% D6-DMSO or in 0.1 M deuterated phosphate buffer, pH 5.8 containing 1.5% D6-DMSO or in D2O was determined.
A solution containing approximately 2 mg each of 4-nitrophenyl-O-β-D-3′-ketoglucopyranoside and 4-nitrophenyl-O-α-D-3′-ketoglucopyranoside was prepared in 1 mL of D2O containing 3.3% v/v D6-DMSO. To two 0.375 mL portions of the resultant solution was added either D2O (0.5 mL) or 0.1M sodium phosphate buffer, pH 5.8 (0.5 mL) to given reactions 1 and 2 respectively. The resultant mixtures were analysed by ^1H NMR directly following preparation then incubated at 32° C./80 rpm and periodically analysed by ^1H NMR at recorded time points.
The change in the ratio between the integrals of the anomeric protons of each ketoglucoside and between the were sum of the anomeric protons and the anomeric protons of each ketoglucoside with time are shown in Table IX: […]

[4] = Example 29: release of phenol from phenyl-O-β-D-3′-keto-6′-sulphatoglucopyranoside pyridinium salt, 0.1 M deuterated phosphate buffer, 15% D6-DMSO, 32° C.
Protocol: In this example the rate of release of phenol from ((2R,3R,5S,6S)-3,5-dihydroxy-4-oxo-6-phenoxytetrahydro-2H-pyran-2-yl)methyl hydrogen sulfate pyridinium salt (phenyl-O-β-D-3′-keto-6′-sulphatoglucopyranoside pyridinium salt) in 0.1 M deuterated phosphate buffer solutions of differing pH containing 15% D6-DMSO was determined.
0.1 M of pH 5.8 and 7.4 stock buffered solutions of sodium dihydrogen phosphate and disodium hydrogen phosphate were prepared in deuterated water (D2O).
A stock solution of 20 mg of phenyl-O-β-D-3′-keto-6′-sulphatoglucopyranoside in 0.5 mL of D6-DMSO were prepared.
To two parallel reaction vials, where indicated in the reaction table below, was added 0.10 mL of the glycoside substrate solutions in D6-DMSO and 0.60 mL of low or high pH 0.1M phosphate buffer in D2O and the mixtures incubated by shaking at 32° C. After times indicated in table below, the mixtures where analysed by ^1H-NMR in a 400 MHz instrument.

[5] = Example 21: release of methanol from substrate A (methyl-O-α-D-3′-ketoglucopyranoside) vs substrate B (methyl-O-α-D-glucopyranoside), 0.1 M phosphate buffer or water, room temperature then 37° C.
Protocol: In this example, methyl-O-α-D-3′-ketoglucopyranoside and methyl-O-α-D-glucopyranoside were used as model compounds to determine the rate of release of an aliphatic alcohol (methanol) under different conditions.
1 M Stock solutions of sodium dihydrogen phosphate and disodium hydrogen phosphate were prepared in deuterated water (D2O). Stock solutions of 15 mg of methyl-O-α-D-3′-ketoglucopyranoside (substrate A) and methyl-O-α-D-glucopyranoside (substrate B) were each prepared by dissolving in 0.3 mL of D6-DMSO.
Solutions of pH 4.5, 5.8 and 7.4 were prepared by dilution of the appropriate individual or mixture of stock phosphate salt solutions to 0.1 M using a calibrated pH meter.
To eight parallel reaction vials was added 0.05 mL of one of the glycoside substrate solutions in D6-DMSO, 0.5 mL of the appropriate deuterated buffer solution or 0.5 mL of water were indicated in the table below and the mixtures analysed by ^1H-NMR with 128 scans using a 400 MHz instrument to give an initial time reading.
The mixtures were then analysed in the same way after allowing to stand at room temperature for a further 22 h.
The mixtures were then incubated by shaking at 37° C. for a further 44 h and analysed in the same way.

[6] = Description: alcohol release from model compounds (III), (IV) and compound (V) in buffer, water and skin washings; details: after 60 h

## O=[N+]([O-])c1ccc(O[C@@H]2O[C@H](CO)[C@@H](O)[C@H](O)[C@H]2O)cc1 [4-nitrophenyl-O-β-D-glucopyranoside, (2R,3S,4S,5R,6S)-2-(hydroxymethyl)-6-(4-nitrophenoxy)tetrahydro-2H-pyran-3,4,5-triol]
[1]
  4-nitrophenol release (in words): releases virtually no 4-nitrophenol
[2]; pH 7, presence and absence of skin washings
  alcohol release (in words): release some 4-nitrophenol visually at pH 7 and typically to a greater extent in the presence of skin washings, but to such a low extent that no change was observed by NMR

## O=C1[C@@H](O)[C@H](Oc2ccc([N+](=O)[O-])cc2)O[C@H](CO)[C@H]1O [(2R,5S,6S)-3,5-dihydroxy-2-(hydroxymethyl)-6-(4-nitrophenoxy)tetrahydro-4H-pyran-4-one]
[1]; reaction 2, pH 4.5
  composition by 1H-NMR (aromatic signals): only starting material
[1]; reaction 3, pH 5.8
  composition by 1H-NMR (aromatic signals): a mixture to starting material and 4-nitrophenol
[1]; reaction 4, pH 7.4
  composition by 1H-NMR (aromatic signals): almost entirely 4-nitrophenol with a trace of starting material
[1]; reaction 5, pH 9.5
  composition by 1H-NMR (aromatic signals): almost entirely 4-nitrophenol with a trace of starting material
[1]
  4-nitrophenol release (in words): from no release at low pH to the delivery of μg quantities of 4-nitrophenol per minute
[3]; Reaction 1, D2O, 0 h
  ratio of the sum of aromatic/β-ketoglucoside proton integrals: 6.8
[3]; Reaction 1, D2O, 20 h
  ratio of the sum of aromatic/β-ketoglucoside proton integrals: 8.3
[3]; Reaction 1, D2O, 45 h
  ratio of the sum of aromatic/β-ketoglucoside proton integrals: 8.8
[3]; Reaction 1, D2O, 143 h
  ratio of the sum of aromatic/β-ketoglucoside proton integrals: 8.3
[3]; Reaction 2, 0.1M sodium phosphate buffer, pH 5.8, 0 h
  ratio of the sum of aromatic/β-ketoglucoside proton integrals: 6.6
[3]; Reaction 2, 0.1M sodium phosphate buffer, pH 5.8, 20 h
  ratio of the sum of aromatic/β-ketoglucoside proton integrals: 7.2
[3]; Reaction 2, 0.1M sodium phosphate buffer, pH 5.8, 45 h
  ratio of the sum of aromatic/β-ketoglucoside proton integrals: 9.7
[3]; Reaction 2, 0.1M sodium phosphate buffer, pH 5.8, 143 h
  ratio of the sum of aromatic/β-ketoglucoside proton integrals: 10.6

## O=C1[C@@H](O)[C@H](Oc2ccccc2)O[C@H](COS(=O)(=O)O)[C@H]1O [((2R,3R,5S,6S)-3,5-dihydroxy-4-oxo-6-phenoxytetrahydro-2H-pyran-2-yl)methyl hydrogen sulfate pyridinium salt]
[4]; 32° C.
  phenol release (in words): generates phenol at pH 7.4
[4]; Reaction 1, pH 5.8, 0 h
  % Conversion by 1H-NMR: 1%
[4]; Reaction 1, pH 5.8, 5 h
  % Conversion by 1H-NMR: 2%
[4]; Reaction 1, pH 5.8, 20 h
  % Conversion by 1H-NMR: 2%
[4]; Reaction 1, pH 5.8, 100 h
  % Conversion by 1H-NMR: 2%
[4]; Reaction 2 (0.60 mL of pH 5.8 buffer), 0 h
  % Conversion by 1H-NMR: 4%
[4]; Reaction 2 (0.60 mL of pH 5.8 buffer), 5 h
  % Conversion by 1H-NMR: 15%
[4]; Reaction 2 (0.60 mL of pH 5.8 buffer), 20 h
  % Conversion by 1H-NMR: 38%
[4]; Reaction 2 (0.60 mL of pH 5.8 buffer), 100 h
  % Conversion by 1H-NMR: 84%

## CO[C@H]1O[C@H](CO)[C@@H](O)[C@H](O)[C@H]1O [methyl-O-α-D-glucopyranoside]
[5]
  stability / methanol release (in words): remains stable over the pH range tested and in water
[2]; all conditions tested (pH 5.7 and 7.0, with and without skin washing, 37° C.)
  stability (in words): stable under all conditions tested

## O=C1[C@@H](O)[C@H](Oc2ccccc2)O[C@H](CO)[C@H]1O [phenyl-O-β-D-3′-ketoglucopyranoside, (2R,5S,6S)-3,5-dihydroxy-2-(hydroxymethyl)-6-phenoxytetrahydro-4H-pyran-4-one]
[2]; pH 5.7, presence and absence of skin washing
  alcohol release (in words): reacts slower than at pH 7 and to the same extent in the presence and absence of skin washing
[6]; buffer alone
  phenol release (in words): a small quantity of conjugate remained
[6]; in the presence of skin washing
  phenol release (in words): complete release of phenol

## OC[C@H]1O[C@@H](Oc2ccccc2)[C@H](O)[C@@H](O)[C@@H]1O [phenyl-O-β-D-glucopyranoside]
[2]; pH 5.7
  stability (in words): stable under all conditions tested
